Assays:
[1] = species: Rattus norvegicus; experiment: Positive allosteric modulator activity at AMPA receptor in 7 days old Sprague-Dawley rat cerebellar granule neurons assessed as potentiation of kainite-evoked current at 10 uM by whole cell patch clamp technique
[2] = Chemical stability of the compound in water/acetonitrile mobile phase by chromatography; assay type: physicochemical; conditions: buffer
[3] = species: Rattus norvegicus; experiment: Positive allosteric modulator activity at AMPA receptor in 7 days old Sprague-Dawley rat cerebellar granule neurons assessed as potentiation of 5-Will-evoked current at 10 uM by whole cell patch clamp technique

Activity [1]	Stability [2]	Activity [3]	Compound
30%	Stable		O=S1(=O)NC2CCCN2c2c(-c3ccoc3)cc(Cl)cc21 (racemic)
8%		10%	CC1Nc2ccc(Cl)cc2S(=O)(=O)N1 (stereo not drawn)
12%		122%	O=S1(=O)N[C@H]2CCCN2c2c(-c3ccoc3)cc(Cl)cc21
74%		245%	O=S1(=O)N[C@@H]2CCCN2c2c(-c3ccoc3)cc(Cl)cc21
